How the values were obtained:
L1210 leukemia [1] = assay: L1210 leukemia implanted intraperitoneally, oral or subcutaneous treatment, survival (Experimental Example 4); format: in vivo, female CDF1 mice; settings: for Average Survival Time / Life-Prolongation Ratio (%): once daily for seven days
Experimental: (§1) The life-prolongation ratio was calculated by the following scheme (the same scheme is applied to the subsequent experimental examples).
(§2) Life-prolongation Ratio [formula] T : Average survival days of the treated group
(§3) C : Average survival days of the control group
(§4) Animals survived over 30 days or longer were estimated as 30-day survivors, and the cases where T/C equals to or greater than 125% were regarded as effective.
A plurality of groups each consisting of five female CDF1 mice (7-8 weeks old) were respectively implanted intraperitoneally with 10 cells of L1210 leukemia. After the next day of the implantation, the test animals were administered orally or subcutaneously once daily for seven days with Y-6430 or ESCC dissolved in physiological saline, and the average survival days and life-prolongation ratios in each group were calculated.
(§5) All the test animals died of tumor within 30 days.

P388 leukemia = P388 leukemia implanted intraperitoneally, survival (Experimental Example 2); format: in vivo, female CDF1 mice; settings: for 30-day Survivors / Average Survival Time / Life-Prolongation Ratio (%): once daily for seven days
Experimental: as §1, §2, §3, §4
A plurality of groups each consisting of five heads of female CDF1 mice (7-8 weeks old) were respectively implanted intraperitoneally with 10^6 cells of P388 leukemia. After 24 hours, Y-6430 and ESCC were respectively administered once daily for seven days, and average survival days, life-prolongation ratios and 30-day survivors in each group were calculated.

experimental tumors = settings: L. Nemeth et al., Arzneim.-Forsh./Drug Res. 28(II), 1119-1123 (1978); cited from earlier work
L1210 leukemia [2] = assay: L1210 leukemia implanted intraperitoneally, i.p. treatment, survival (Experimental Example 3); format: in vivo, female CDF1 mice; settings: for Average Survival Time / Life-Prolongation Ratio (%): once daily for seven days; for effectiveness against L1210 leukemia: i.p., all doses of Table 4
Experimental: as §1, §2, §3, §4
A plurality of groups each consisting of five heads of female CDF1 mice (8 weeks old) were respectively implanted intraperitoneally with 10 cells of L1210 leukemia. After the next day of the implantation, Y-6430, ESCC and ESCC ethyl ester (hereinafter referred to ESCC-Et) in physiological saline were respectively administered once daily for seven days intraperitoneally, and the average survival days and life-prolongation ratios in each group were calculated.
as §5

leukemia = settings: R.H. Adamson, Nature 217, 751-752 (1968); cited from earlier work

CCNC(=O)SC[C@H](N)C(=O)O [ESCC, S-ethylcarbamoyl-L-cysteine, reference compound]
Average Survival Time (L1210 leukemia [1]; 100 mg/kg/day s.c.): 8.0 days | Life-Prolongation Ratio (%) (L1210 leukemia [1]; 100 mg/kg/day s.c.): 100% | Average Survival Time (L1210 leukemia [1]; 250 mg/kg/day s.c.): 8.0 days | Life-Prolongation Ratio (%) (L1210 leukemia [1]; 250 mg/kg/day s.c.): 100% | Average Survival Time (L1210 leukemia [1]; 500 mg/kg/day p.o.): 8.0 days | Life-Prolongation Ratio (%) (L1210 leukemia [1]; 500 mg/kg/day p.o.): 98% | Average Survival Time (L1210 leukemia [1]; 500 mg/kg/day s.c.): 8.0 days | Life-Prolongation Ratio (%) (L1210 leukemia [1]; 500 mg/kg/day s.c.): 100% | Average Survival Time (L1210 leukemia [1]; 1,000 mg/kg/day p.o.): 9.2 days | Life-Prolongation Ratio (%) (L1210 leukemia [1]; 1,000 mg/kg/day p.o.): 112% | Average Survival Time (L1210 leukemia [1]; 2,000 mg/kg/day p.o.): 9.6 days | Life-Prolongation Ratio (%) (L1210 leukemia [1]; 2,000 mg/kg/day p.o.): 117% | effectiveness against L1210 leukemia (L1210 leukemia [1]; oral and subcutaneous administration): ineffective | 30-day Survivors (P388 leukemia; 100 mg/kg/day p.o.): 0/5 | Average Survival Time (P388 leukemia; 100 mg/kg/day p.o.): 10.2 days | Life-Prolongation Ratio (%) (P388 leukemia; 100 mg/kg/day p.o.): 102% | 30-day Survivors (P388 leukemia; 250 mg/kg/day p.o.): 0/5 | Average Survival Time (P388 leukemia; 250 mg/kg/day p.o.): 10.8 days | Life-Prolongation Ratio (%) (P388 leukemia; 250 mg/kg/day p.o.): 108% | 30-day Survivors (P388 leukemia; 500 mg/kg/day p.o.): 0/5 | Average Survival Time (P388 leukemia; 500 mg/kg/day p.o.): 10.8 days | Life-Prolongation Ratio (%) (P388 leukemia; 500 mg/kg/day p.o.): 108% | 30-day Survivors (P388 leukemia; 1,000 mg/kg/day p.o.): 0/5 | Average Survival Time (P388 leukemia; 1,000 mg/kg/day p.o.): 12.6 days | Life-Prolongation Ratio (%) (P388 leukemia; 1,000 mg/kg/day p.o.): 126% | effectiveness against P388 leukemia (P388 leukemia; summary of Tables 2 and 3, T/C equal to or greater than 125% regarded as effective): only slightly effective | effect against experimental tumors (experimental tumors): more excellent effect than S-carbamoyl-L-cysteine | Average Survival Time (L1210 leukemia [2]; 50 mg/kg/day i.p.): 8.0 days | Life-Prolongation Ratio (%) (L1210 leukemia [2]; 50 mg/kg/day i.p.): 108% | Average Survival Time (L1210 leukemia [2]; 100 mg/kg/day i.p.): 8.0 days | Life-Prolongation Ratio (%) (L1210 leukemia [2]; 100 mg/kg/day i.p.): 108% | Average Survival Time (L1210 leukemia [2]; 250 mg/kg/day i.p.): 9.0 days | Life-Prolongation Ratio (%) (L1210 leukemia [2]; 250 mg/kg/day i.p.): 122% | Average Survival Time (L1210 leukemia [2]; 500 mg/kg/day i.p.): 9.0 days | Life-Prolongation Ratio (%) (L1210 leukemia [2]; 500 mg/kg/day i.p.): 122% | effectiveness against L1210 leukemia (L1210 leukemia [2]): ineffective

CCNC(=O)SC[C@H](N)C(=O)OCC [ESCC-Et, ESCC ethyl ester]
Average Survival Time (L1210 leukemia [2]; 50 mg/kg/day i.p.): 8.2 days | Life-Prolongation Ratio (%) (L1210 leukemia [2]; 50 mg/kg/day i.p.): 103% | Average Survival Time (L1210 leukemia [2]; 100 mg/kg/day i.p.): 8.4 days | Life-Prolongation Ratio (%) (L1210 leukemia [2]; 100 mg/kg/day i.p.): 105% | Average Survival Time (L1210 leukemia [2]; 250 mg/kg/day i.p.): 9.0 days | Life-Prolongation Ratio (%) (L1210 leukemia [2]; 250 mg/kg/day i.p.): 113% | Average Survival Time (L1210 leukemia [2]; 500 mg/kg/day i.p.): 9.0 days | Life-Prolongation Ratio (%) (L1210 leukemia [2]; 500 mg/kg/day i.p.): 113% | effectiveness against L1210 leukemia (L1210 leukemia [2]): ineffective

NC(=O)SC[C@H](N)C(=O)O [S-carbamoyl-L-cysteine]
effectiveness against leukemia in mice (leukemia): effective

Source: patent EP0139005A1, “ANTITUMOR COMPOSITION, METHOD FOR TREATING TUMOR, AND USE OF THE COMPOSITION FOR TREATING TUMOR” (Yoshitomi Pharmaceutical Industries, Ltd., priority 1982, dated 1984)
